Measurements from patent publication US20240116910A1, “Heterocycles as WIP1 Inhibitors” (PMV Pharmaceuticals, Inc., priority 2022, published 2024).

These molecules were tested against recombinant His-tag Wip1(2-420) protein (amino acids #2-420) (Homo sapiens (Human), UniProt O15297) (assay: Wip1(2-420) phosphatase enzyme FDP assay). Details: fluorescein diphosphate (FDP) substrate, RT 2 hours, fluorescence Ex485/Em535; read-out: WIP1 (Truncated 2-420) FDP Assay: IC50.
recombinant His-tag Wip1(2-420) protein (amino acids #2-420), sequence (O15297 2-420): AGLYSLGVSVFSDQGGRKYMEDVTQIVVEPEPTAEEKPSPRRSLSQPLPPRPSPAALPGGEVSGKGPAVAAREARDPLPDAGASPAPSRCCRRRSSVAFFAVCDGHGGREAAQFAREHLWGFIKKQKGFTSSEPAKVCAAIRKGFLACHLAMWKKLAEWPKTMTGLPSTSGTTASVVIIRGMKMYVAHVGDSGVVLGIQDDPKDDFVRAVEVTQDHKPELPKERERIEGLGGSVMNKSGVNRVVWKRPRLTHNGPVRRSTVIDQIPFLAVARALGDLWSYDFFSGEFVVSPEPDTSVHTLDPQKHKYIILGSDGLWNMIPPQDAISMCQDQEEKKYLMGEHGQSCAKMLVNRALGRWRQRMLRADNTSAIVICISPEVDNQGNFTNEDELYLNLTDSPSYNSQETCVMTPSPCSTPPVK
Type: biochemical
In the case of Cc1ncc(Cl)cc1N[C@@H](C)c1ccc(C(=O)N[C@@H](CC2CCCC2)C(=O)Nc2ccc3cnccc3c2)s1 [Compound 195, (2S)-2-({5-[(1S)-1-[(5-chloro-2-methylpyridin-3-yl)amino]ethyl]thiophen-2-yl}formamido)-3-cyclopentyl-N-(isoquinolin-6-yl)propanamide], the IC50 is reported as 3 nM. For CNC(=O)c1ncc(Cl)cc1N[C@@H](C)c1ccc(C(=O)N[C@@H](CC2CCCC2)C(=O)NC2CC2)s1 [Compound 196, 5-chloro-3-{[(1S)-1-(5-{[(1S)-2-cyclopentyl-1-(cyclopropylcarbamoyl)ethyl]carbamoyl}thiophen-2-yl)ethyl]amino}-N-methylpyridine-2-carboxamide], the IC50 was 6 nM. Work on Cc1ncc(Cl)cc1N[C@@H](C)c1ccc(C(=O)N[C@@H](CC2CC3CC3C2)C(=O)NC2CC2)s1 (stereo partly drawn) [Compound 201, (2S)-3-{bicyclo[3.1.0]hexan-3-yl}-2-({5-[(1S)-1-[(5-chloro-2-methylpyridin-3-yl)amino]ethyl]thiophen-2-yl}formamido)-N-cyclopropylpropanamide] yielded an IC50 of 7 nM. In the case of CC(Nc1cc(Cl)cnc1C(F)(F)F)c1ccc(C(=O)N[C@@H](CC2CCCC2)C(=O)NC2CC2)s1 (stereo partly drawn) [Compound 202, (2S)-2-{[5-(1-{[5-chloro-2-(trifluoromethyl)pyridin-3-yl]amino}ethyl)thiophen-2-yl]formamido}-3-cyclopentyl-N-cyclopropylpropanamide], the IC50 is reported as 19 nM. CC(Nc1cc(Cl)cnc1C(C)(C)O)c1ccc(C(=O)N[C@@H](CC2CCCC2)C(=O)NC2CC2)s1 (stereo partly drawn) [Compound 203, (2S)-2-{[5-(1-{[5-chloro-2-(2-hydroxypropan-2-yl)pyridin-3-yl]amino}ethyl)thiophen-2-yl]formamido}-3-cyclopentyl-N-cyclopropylpropanamide] gave an IC50 of 17 nM. COCCOCCNC(=O)[C@H](CC1CCCC1)NC(=O)c1ccc([C@H](C)Nc2cc(Cl)cnc2C)s1 [Compound 204, (2S)-2-({5-[(1S)-1-[(5-chloro-2-methylpyridin-3-yl)amino]ethyl]thiophen-2-yl}formamido)-3-cyclopentyl-N-[2-(2-methoxyethoxy)ethyl]propanamide] gave an IC50 of 102 nM. C[C@H](Nc1cc(Cl)cnc1C(=O)N(C)C)c1ccc(C(=O)N[C@@H](CC2CCCC2)C(=O)NC2CC2)s1 [Compound 205, 5-chloro-3-{[(1S)-1-(5-{[(1S)-2-cyclopentyl-1-(cyclopropylcarbamoyl)ethyl]carbamoyl}thiophen-2-yl)ethyl]amino}-N,N-dimethylpyridine-2-carboxamide] showed an IC50 of 29 nM. In the case of Cc1ncc(Cl)cc1N[C@@H](C)c1ccc(C(=O)N[C@@H](CC2CCCC2)C(=O)N[C@H]2C[C@H](C#N)C2)s1 [Compound 211, (2S)-2-({5-[(1S)-1-[(5-chloro-2-methylpyridin-3-yl)amino]ethyl]thiophen-2-yl}formamido)-3-cyclopentyl-N-[(1r,3r)-3-cyanocyclobutyl]propanamide], the IC50 is reported as 10 nM. Cc1ncc(Cl)cc1NC(Cc1ccccc1)c1ccc(C(=O)N[C@@H](CC2CCCC2)C(=O)NC23CC(F)(C2)C3)s1 (stereo partly drawn) [Compound 212, (2S)-2-[(5-{1-[(5-chloro-2-methylpyridin-3-yl)amino]-2-phenylethyl}thiophen-2-yl)formamido]-3-cyclopentyl-N-{3-fluorobicyclo[1.1.1]pentan-1-yl}propanamide] showed an IC50 of 23 nM. Work on Cc1ncc(Cl)cc1N[C@H](Cc1ccccc1)c1ccc(C(=O)N[C@@H](CC2CCCC2)C(=O)NC23CC(C#N)(C2)C3)s1 [Compound 213, (2S)-2-({5-[(1R)-1-[(5-chloro-2-methylpyridin-3-yl)amino]-2-phenylethyl]thiophen-2-yl}formamido)-N-{3-cyanobicyclo[1.1.1]pentan-1-yl}-3-cyclopentylpropanamide] yielded an IC50 of 166 nM. Cc1ncc(Cl)cc1N[C@@H](Cc1ccccc1)c1ccc(C(=O)N[C@@H](CC2CCCC2)C(=O)NC23CC(C#N)(C2)C3)s1 [Compound 214, (2S)-2-({5-[(1S)-1-[(5-chloro-2-methylpyridin-3-yl)amino]-2-phenylethyl]thiophen-2-yl}formamido)-N-{3-cyanobicyclo[1.1.1]pentan-1-yl}-3-cyclopentylpropanamide] showed an IC50 of 20 nM. In the case of Cc1ncc(Cl)cc1N[C@H](Cc1ccccc1)c1ccc(C(=O)N[C@@H](CC2CCCC2)C(=O)NC23CC(C2)C3)s1 [Compound 215, (2S)-N-{bicyclo[1.1.1]pentan-1-yl}-2-({5-[(1R)-1-[(5-chloro-2-methylpyridin-3-yl)amino]-2-phenylethyl]thiophen-2-yl}formamido)-3-cyclopentylpropanamide], the IC50 is reported as 101 nM. With Cc1ncc(Cl)cc1N[C@@H](Cc1ccccc1)c1ccc(C(=O)N[C@@H](CC2CCCC2)C(=O)NC23CC(C2)C3)s1 [Compound 216, (2S)-N-{bicyclo[1.1.1]pentan-1-yl}-2-({5-[(1S)-1-[(5-chloro-2-methylpyridin-3-yl)amino]-2-phenylethyl]thiophen-2-yl}formamido)-3-cyclopentylpropanamide] the IC50 was 12 nM. Molecule Cc1ncc(Cl)cc1N[C@@H](C)c1ccc(C(=O)N[C@@H](CCC(C)C)C(=O)NC2CC2)s1 [Compound 217, (2S)-2-({5-[(1S)-1-[(5-chloro-2-methylpyridin-3-yl)amino]ethyl]thiophen-2-yl}formamido)-N-cyclopropyl-5-methylhexanamide] has an IC50 of 27 nM. COCCn1cc(NC(=O)[C@H](CC2CCCC2)NC(=O)c2ccc([C@H](C)Nc3cc(Cl)cnc3C)s2)cn1 [Compound 220, (2S)-2-({5-[(1S)-1-[(5-chloro-2-methylpyridin-3-yl)amino]ethyl]thiophen-2-yl}formamido)-3-cyclopentyl-N-[1-(2-methoxyethyl)-1H-pyrazol-4-yl]propanamide] was tested, and the IC50 was 6 nM. Cc1ncc(Cl)cc1N[C@@H](C)c1ccc(C(=O)N[C@@H](CC2CCCC2)C(=O)N[C@H]2C[C@@H](C#N)C2)s1 [Compound 221, (2S)-2-({5-[(1S)-1-[(5-chloro-2-methylpyridin-3-yl)amino]ethyl]thiophen-2-yl}formamido)-3-cyclopentyl-N-[(1s,3s)-3-cyanocyclobutyl]propanamide] gave an IC50 of 6 nM. Molecule Cc1ncc(Cl)cc1N[C@H](Cc1ccc(F)cc1)c1ccc(C(=O)N[C@@H](CC2CCCC2)C(=O)NC2CC2)s1 [Compound 222, (2S)-2-({5-[(1R)-1-[(5-chloro-2-methylpyridin-3-yl)amino]-2-(4-fluorophenyl)ethyl]thiophen-2-yl}formamido)-3-cyclopentyl-N-cyclopropylpropanamide] has an IC50 of 68 nM. Cc1ncc(Cl)cc1N[C@@H](Cc1ccc(F)cc1)c1ccc(C(=O)N[C@@H](CC2CCCC2)C(=O)NC2CC2)s1 [Compound 223, (2S)-2-({5-[(1S)-1-[(5-chloro-2-methylpyridin-3-yl)amino]-2-(4-fluorophenyl)ethyl]thiophen-2-yl}formamido)-3-cyclopentyl-N-cyclopropylpropanamide] was tested, and the IC50 was 11 nM. Cc1ncc(Cl)cc1NC(c1ccc(C(=O)N[C@@H](CC2CCCC2)C(=O)NC2CC2)s1)C(F)(F)F (stereo partly drawn) [Compound 224, (2S)-2-[(5-{1-[(5-chloro-2-methylpyridin-3-yl)amino]-2,2,2-trifluoroethyl}thiophen-2-yl)formamido]-3-cyclopentyl-N-cyclopropylpropanamide] gave an IC50 of 132 nM. Cc1ncc(Cl)cc1NC(c1ccc(C(=O)N[C@@H](CC2CCCC2)C(=O)NC23CC(C2)C3)s1)C(F)(F)F (stereo partly drawn) [Compound 225, (2S)-N-{bicyclo[1.1.1]pentan-1-yl}-2-[(5-{1-[(5-chloro-2-methylpyridin-3-yl)amino]-2,2,2-trifluoroethyl}thiophen-2-yl)formamido]-3-cyclopentylpropanamide] gave an IC50 of 89 nM. For COCc1ncc(Cl)cc1N[C@@H](C)c1ccc(C(=O)N[C@@H](CC2CCCC2)C(=O)NC2CC2)s1 [Compound 226, (2S)-2-({5-[(1S)-1-{[5-chloro-2-(methoxymethyl)pyridin-3-yl]amino}ethyl]thiophen-2-yl}formamido)-3-cyclopentyl-N-cyclopropylpropanamide], the IC50 was 11 nM. Cc1ncc(Cl)cc1N[C@@H](C)c1ccc(C(=O)N[C@@H](CC2CCCC2)C(=O)Nc2cn[nH]c2)s1 [Compound 227, (2S)-2-({5-[(1S)-1-[(5-chloro-2-methylpyridin-3-yl)amino]ethyl]thiophen-2-yl}formamido)-3-cyclopentyl-N-(1H-pyrazol-4-yl)propanamide] gave an IC50 of 8 nM. C[C@H](Nc1cc(Cl)cnc1C(N)=O)c1ccc(C(=O)N[C@@H](CC2CCCC2)C(=O)NC2CC2)s1 [Compound 228, 5-chloro-3-{[(1S)-1-(5-{[(1S)-2-cyclopentyl-1-(cyclopropylcarbamoyl)ethyl]carbamoyl}thiophen-2-yl)ethyl]amino}pyridine-2-carboxamide] was tested, and the IC50 was 5 nM. CC(Nc1cc(Cl)ccc1C(C)(C)O)c1ccc(C(=O)N[C@@H](CC2CCCC2)C(=O)NC2CC2)s1 (stereo partly drawn) [Compound 229, (2S)-2-{[5-(1-{[5-chloro-2-(2-hydroxypropan-2-yl)phenyl]amino}ethyl)thiophen-2-yl]formamido}-3-cyclopentyl-N-cyclopropylpropanamide] gave an IC50 of 20 nM. Molecule C[C@@H](Nc1cc(Cl)cnc1-c1cccc(Cl)c1)c1ccc(C(=O)N[C@@H](CC2CCCC2)C(=O)NC2CC2)s1 [Compound 230, (2S)-2-({5-[(1R)-1-{[5-chloro-2-(3-chlorophenyl)pyridin-3-yl]amino}ethyl]thiophen-2-yl}formamido)-3-cyclopentyl-N-cyclopropylpropanamide] has an IC50 of 196 nM. For C[C@H](Nc1cc(Cl)cnc1-c1cccc(Cl)c1)c1ccc(C(=O)N[C@@H](CC2CCCC2)C(=O)NC2CC2)s1 [Compound 231, (2S)-2-({5-[(1S)-1-{[5-chloro-2-(3-chlorophenyl)pyridin-3-yl]amino}ethyl]thiophen-2-yl}formamido)-3-cyclopentyl-N-cyclopropylpropanamide], the IC50 was 8 nM. Work on C[C@H](Nc1cc(Cl)cnc1-c1cccnc1)c1ccc(C(=O)N[C@@H](CC2CCCC2)C(=O)NC2CC2)s1 [Compound 232, (2S)-2-({5-[(1S)-1-({5-chloro-[2,3′-bipyridin]-3-yl}amino)ethyl]thiophen-2-yl}formamido)-3-cyclopentyl-N-cyclopropylpropanamide] yielded an IC50 of 13 nM.
